Results as given in patent publication US4113855A, “Composition of matter and process” (The Upjohn Company, priority 1977, dated 1978).

Legend:
[1] = tested on: Pseudomonas aeruginosa GN-315 (UC 6149); experiment: antibacterial activity; format: cell-based
[2] = tested on: P. aeruginosa Strain No. 6436; experiment: standard agar disc plate assay using 6.35 mm paper discs; format: cell-based, Pseudomonas aeruginosa; conditions: for zone of inhibition at 1000 µg/mL: Pseudomonas aeruginosa, read-out: Zones of Inhibition; for Zones of Inhibition: strain 6436, 0.03 ml of 1 mg/ml per 6.35 mm disc
[3] = tested on: P. aeruginosa Strain No. 6433; experiment: as above; format: cell-based, Pseudomonas aeruginosa; conditions: for Zones of Inhibition: strain 6433, 0.03 ml of 1 mg/ml per 6.35 mm disc
[4] = tested on: P. aeruginosa Strain No. 6434; experiment: as above; format: cell-based, Pseudomonas aeruginosa; conditions: for zone of inhibition at 1000 µg/mL: Pseudomonas aeruginosa, read-out: Zones of Inhibition; for Zones of Inhibition: strain 6434, 0.03 ml of 1 mg/ml per 6.35 mm disc
[5] = tested on: P. aeruginosa Strain No. 6430; experiment: as above; format: cell-based, Pseudomonas aeruginosa; conditions: for zone of inhibition at 1000 µg/mL: Pseudomonas aeruginosa, read-out: Zones of Inhibition; for Zones of Inhibition: strain 6430, 0.03 ml of 1 mg/ml per 6.35 mm disc
[6] = tested on: P. aeruginosa Strain No. 6429; experiment: as above; format: cell-based, Pseudomonas aeruginosa; conditions: for zone of inhibition at 1000 µg/mL: Pseudomonas aeruginosa, read-out: Zones of Inhibition; for Zones of Inhibition: strain 6429, 0.03 ml of 1 mg/ml per 6.35 mm disc
[7] = tested on: Pseudomonas aeruginosa strains obtained from Bronson Hospital; experiment: antibacterial activity against hospital strains; format: cell-based; conditions: Kalamazoo
[8] = tested on: P. aeruginosa Strain No. 6435; experiment: standard agar disc plate assay using 6.35 mm paper discs; format: cell-based, Pseudomonas aeruginosa; conditions: for zone of inhibition at 1000 µg/mL: Pseudomonas aeruginosa, read-out: Zones of Inhibition; for Zones of Inhibition: strain 6435, 0.03 ml of 1 mg/ml per 6.35 mm disc
[9] = tested on: P. aeruginosa Strain No. 6431; experiment: as above; format: cell-based, Pseudomonas aeruginosa; conditions: for zone of inhibition at 1000 µg/mL: Pseudomonas aeruginosa, read-out: Zones of Inhibition; for Zones of Inhibition: strain 6431, 0.03 ml of 1 mg/ml per 6.35 mm disc
[10] = tested on: Streptococcus fecalis UC 694; experiment: microplate broth dilution assay using nutrient broth; format: cell-based
Description: (§1) On testing antibiotic 354 by a microplate broth dilution assay using nutrient broth the following spectrum was observed.

[11] = tested on: Serratia marcescens UC 131; experiment: as above; format: cell-based
Description: as §1

[12] = tested on: Salmonella schottmuelleri UC 126; experiment: as above; format: cell-based
Description: as §1

[13] = tested on: Klebsiella pneumoniae UC 58; experiment: as above; format: cell-based
Description: as §1

[14] = tested on: Klebsiella pneumoniae UC 57; experiment: as above; format: cell-based
Description: as §1

[15] = tested on: Proteus mirabilis; experiment: as above; format: cell-based
Description: as §1

[16] = tested on: Staphylococcus aureus UC 76; experiment: as above; format: cell-based
Description: as §1

[17] = tested on: Salmonella typhi; experiment: as above; format: cell-based
Description: as §1

[18] = tested on: Gram-negative bacteria; experiment: antibacterial activity; format: cell-based
[19] = tested on: species of Proteus; experiment: antibacterial activity; format: cell-based
[20] = tested on: Pseudomonas mildenbergii (UC 3029); experiment: agar disc plate assay, biounits; format: cell-based; conditions: vs. UC 3029; BU = concentration giving a 20 mm zone of inhibition
Method: The assay is an agar disc plate assay using the microorganism P. mildenbergii. The agar medium is buffered with 0.1 M phosphate buffer at a pH of 7.4. A unit volume (0.08 ml) of solution containing the substance to be assayed is placed on a 12.7 mm paper disc which is then placed on an agar plate seeded with the assay organism. The agar plate is then incubated for 16-18 hours at 37° C. A biounit (BU) is defined as the concentration of the antibiotic which gives a 20 mm zone of inhibition under the above assay conditions.

[21] = tested on: Pseudomonas mildenbergii; experiment: standard disc plate assay (12.7 mm assay discs); format: cell-based; conditions: 1 mg/ml, 12.7 mm discs
[22] = basicity; format: physicochemical
[23] = tested on: species of Pseudomonas; experiment: antibacterial activity; format: cell-based
[24] = tested on: Bacillus subtillis; experiment: standard disc plate assay (12.7 mm assay discs); format: cell-based; conditions: 1 mg/ml, 12.7 mm discs
[25] = tested on: P. aeruginosa Strain No. 6431; experiment: nutrient broth dilution test; format: cell-based, Pseudomonas aeruginosa; conditions: strain 6431; 32° C., 18 hours
Method: (§2) Antibiotic 354 was also tested on a nutrient broth dilution test against the same Pseudomonas strains listed above. The test tubes were incubated at 32° C. for 18 hours.

[26] = tested on: P. aeruginosa Strain No. 6430; experiment: nutrient broth dilution test; format: cell-based, Pseudomonas aeruginosa; conditions: strain 6430; 32° C., 18 hours
Method: as §2

[27] = tested on: P. aeruginosa Strain No. 6435; experiment: nutrient broth dilution test; format: cell-based, Pseudomonas aeruginosa; conditions: strain 6435; 32° C., 18 hours
Method: as §2

[28] = tested on: P. aeruginosa Strain No. 6434; experiment: nutrient broth dilution test; format: cell-based, Pseudomonas aeruginosa; conditions: strain 6434; 32° C., 18 hours
Method: as §2

[29] = tested on: P. aeruginosa Strain No. 6433; experiment: nutrient broth dilution test; format: cell-based, Pseudomonas aeruginosa; conditions: strain 6433; 32° C., 18 hours
Method: as §2

[30] = tested on: P. aeruginosa Strain No. 6429; experiment: nutrient broth dilution test; format: cell-based, Pseudomonas aeruginosa; conditions: strain 6429; 32° C., 18 hours
Method: as §2

[31] = tested on: P. aeruginosa Strain No. 6436; experiment: nutrient broth dilution test; format: cell-based, Pseudomonas aeruginosa; conditions: strain 6436; 32° C., 18 hours
Method: as §2

## CCn1cc(C(=O)O)c(=O)c2ccc(C)nc21 [Nalidixic Acid]
[1]
  activity / resistance, P. aeruginosa GN-315: resistant
[2]
  zone of inhibition at 1000 µg/mL: 13 mm
[3]; Pseudomonas aeruginosa, read-out: Zones of Inhibition
  zone of inhibition at 1000 µg/mL: 13 mm
[4]
  zone of inhibition at 1000 µg/mL: 13 mm
[5]
  zone of inhibition at 1000 µg/mL: 13 mm
[6]
  zone of inhibition at 1000 µg/mL: 13 mm
[7]
  activity / resistance, Bronson Hospital P. aeruginosa strains: relatively resistant
[8]
  zone of inhibition at 1000 µg/mL: 17 mm
[9]
  zone of inhibition at 1000 µg/mL: 12 mm

## Gentamycin
[1]
  activity / resistance, P. aeruginosa GN-315: resistant
[2]
  Zones of Inhibition: 9 mm
[3]
  Zones of Inhibition: 11 mm
[4]
  Zones of Inhibition: 22 mm
[5]
  Zones of Inhibition: 14 mm
[6]
  Zones of Inhibition: 14 mm
[7]
  activity / resistance, Bronson Hospital P. aeruginosa strains: relatively resistant
[8]
  Zones of Inhibition: 13 mm
[9]
  Zones of Inhibition: trace

## Polymyxin B
[2]
  Zones of Inhibition: 9 mm
[3]
  Zones of Inhibition: trace
[4]
  Zones of Inhibition: trace
[5]
  Zones of Inhibition: trace
[6]
  Zones of Inhibition: trace
[7]
  activity / resistance, Bronson Hospital P. aeruginosa strains: relatively resistant
[8]
  Zones of Inhibition: trace
[9]
  Zones of Inhibition: trace

## NC[C@H]1O[C@H](O[C@H]2[C@H](O)[C@@H](O[C@H]3O[C@H](CO)[C@@H](O)[C@H](N)[C@H]3O)[C@H](N)C[C@@H]2N)[C@H](O)[C@@H](O)[C@@H]1O [Kanamycin]
[1]
  activity / resistance, P. aeruginosa GN-315: resistant
[2]
  zone of inhibition at 1000 µg/mL: 0 mm
[3]
  Zones of Inhibition: trace
[4]
  zone of inhibition at 1000 µg/mL: 13 mm
[5]
  zone of inhibition at 1000 µg/mL: 11 mm
[6]
  zone of inhibition at 1000 µg/mL: 11 mm
[7]
  activity / resistance, Bronson Hospital P. aeruginosa strains: relatively resistant
[8]
  zone of inhibition at 1000 µg/mL: 0 mm
[9]
  zone of inhibition at 1000 µg/mL: 0 mm

## N=C1C=C[C@@]2(O)C[C@H](Cl)CN12 [Antibiotic 354]
[10]
  Minimum Inhibitory Concentration: 125 µg/mL
[11]
  Minimum Inhibitory Concentration: 3.9 µg/mL
[12]
  Minimum Inhibitory Concentration: 7.8 µg/mL
[13]
  Minimum Inhibitory Concentration: 7.8 µg/mL
[14]
  Minimum Inhibitory Concentration: 31.2 µg/mL
[15]
  Minimum Inhibitory Concentration: 31.2 µg/mL
[16]
  Minimum Inhibitory Concentration: 31.2 µg/mL
[17]
  Minimum Inhibitory Concentration: 15.6 µg/mL
[1]
  activity / resistance, P. aeruginosa GN-315: active
[18]
  activity against Gram-negative bacteria: active
[19]
  activity against species of Proteus: very active
[2]
  Zones of Inhibition: 22 mm
[3]
  Zones of Inhibition: 21 mm
[20]
  potency in biounits: 8 BU/mg
[4]
  Zones of Inhibition: 20 mm
[5]
  Zones of Inhibition: 33 mm
[21]
  Zone Of Inhibition: 30 mm
[6]
  Zones of Inhibition: 22 mm
[7]
  activity / resistance, Bronson Hospital P. aeruginosa strains: active
[22]
  basicity: strongly basic
[8]
  Zones of Inhibition: 24 mm
[23]
  activity against species of Pseudomonas: very active
[9]
  Zones of Inhibition: 22 mm
[24]
  Zone Of Inhibition: 25 mm
[25]
  Minimum Inhibitory Concentration: 25 µg/mL
[26]
  Minimum Inhibitory Concentration: 25 µg/mL
[27]
  Minimum Inhibitory Concentration: 12.5 µg/mL
[28]
  Minimum Inhibitory Concentration: 12.5 µg/mL
[29]
  Minimum Inhibitory Concentration: 25 µg/mL
[30]
  Minimum Inhibitory Concentration: 25 µg/mL
[31]
  Minimum Inhibitory Concentration: 25 µg/mL
